This is an account of results in patent US20100041892A1, “Therapeutic agent for diabetes” (priority 2005, published 2010).

Usually melting point stands for the temperature of the solid-liquid transition.

Compound `COCCOc1ccc(/C=C/C(=O)NS(=O)(=O)CC(F)(F)F)c(Oc2ncc(C(F)(F)F)cc2Cl)c1` [Example 246, (2E)-3-[2-{[3-chloro-5-(trifluoromethyl)pyridin-2-yl]oxy}-4-(2-methoxyethoxy)phenyl]-N-[(2,2,2-trifluoroethyl)sulfonyl]acrylamide] came in with a melting point of 146 to 147.5 °C.

Take `CCCCCS(=O)(=O)NC(=O)/C=C/c1ccc(OCC(O)COC(C)C)cc1Oc1ncc(C(F)(F)F)cc1Cl` (stereo not shown) [Example 456, (2E)-3-[2-{[3-chloro-5-(trifluoromethyl)pyridin-2-yl]oxy}-4-(2-hydroxy-3-isopropoxypropoxy)phenyl]-N-(pentylsulfonyl)acrylamide]: the melting point lay in the range of 86 to 88 °C.

On to `CCCCCS(=O)(=O)NC(=O)CCc1cc(OC(C)C)nn1Cc1ccc(F)cc1F` [Example 80, 3-[1-(2,4-difluorobenzyl)-3-isopropoxy-1H-pyrazol-5-yl]-N-(pentylsulfonyl)propanamide], for which the melting point was 107 to 108 °C.

On to `COCCOc1ccc(CCCOC(=O)NS(=O)(=O)NCCC(C)C)c(Oc2ncc(C(F)(F)F)cc2Cl)c1` [Example 203, 3-[2-{[3-chloro-5-(trifluoromethyl)pyridin-2-yl]oxy}-4-(2-methoxyethoxy)phenyl]propyl {[(3-methylbutyl)amino]sulfonyl}carbamate], for which the melting point was in the range of 123 to 123.5 °C.

The compound `CCCCCS(=O)(=O)NC(=O)CCc1ccc(OC(C)C)cc1OCc1ccc(Cl)cc1Cl` [Example 42, 3-{2-[(2,4-dichlorobenzyl)oxy]-4-isopropoxyphenyl}-N-(pentylsulfonyl)propanamide] gave a melting point of 120 to 120.5 °C.

Consider `COCCCS(=O)(=O)NC(=O)/C=C/c1cc(OCC2CC2)nn1Cc1ccc(C(F)(F)F)cc1Cl` [Example 119, (2E)-3-[1-[2-chloro-4-(trifluoromethyl)benzyl]-3-(cyclopropylmethoxy)-1H-pyrazol-5-yl]-N-[(3-methoxypropyl)sulfonyl]acrylamide], for which the melting point fell in the range of 137 to 138 °C.

The compound `CCN(CC)C(=O)COc1ccc(CCC(=O)NS(=O)(=O)CCC(C)C)c(Oc2ncc(C(F)(F)F)cc2Cl)c1` [Example 45, 3-{2-{[3-chloro-5-(trifluoromethyl)pyridin-2-yl]oxy}-4-[2-(diethylamino)-2-oxoethoxy]phenyl}-N-[(3-methylbutyl)sulfonyl]propanamide] showed a melting point of 123 to 125 °C.

With `CCCCCS(=O)(=O)NC(=O)/C=C/c1ccc(OCCOC)cc1Nc1ccc(C(F)(F)F)cc1` [Example 176, (2E)-3-(4-(2-methoxyethoxy)-2-{[4-(trifluoromethyl)phenyl]amino}phenyl)-N-(pentylsulfonyl)acrylamide], the melting point lay in the range of 142.3 to 142.6 °C.

With `CCCCCC(=O)NS(=O)(=O)CCc1cc(OCCCC)nn1Cc1ccc(Cl)cc1Cl` [Example 128, N-({2-[3-butoxy-1-(2,4-dichlorobenzyl)-1H-pyrazol-5-yl]ethyl}sulfonyl)hexanamide], the melting point lay in the range of 90 to 92 °C.

On to `CCCCCS(=O)(=O)NC(=O)CCc1ccc(OCCOC)cc1OCC1CCCCC1` [Example 159, 3-[2-(cyclohexylmethoxy)-4-(2-methoxyethoxy)phenyl]-N-(pentylsulfonyl)propanamide], for which the melting point is 81 to 82 °C.

As to `C/C(=C\c1ccc(OC(C)C)cc1Oc1ncc(C(F)(F)F)cc1Cl)C(=O)NS(=O)(=O)NCCc1ccccc1` [Example 220, (2E)-3-(2-{[3-chloro-5-(trifluoromethyl)pyridin-2-yl]oxy}-4-isopropoxyphenyl)-2-methyl-N-{[(2-phenylethyl)amino]sulfonyl}acrylamide], the melting point lay in the range of 147 to 147.5 °C.

For `COCCOc1ccc(/C=C/C(=O)NS(=O)(=O)NCCc2ccccc2)c(Oc2ncc(C(F)(F)F)cc2Cl)c1` [Example 228, (2E)-3-[2-{[3-chloro-5-(trifluoromethyl)pyridin-2-yl]oxy}-4-(2-methoxyethoxy)phenyl]-N-{[(2-phenylethyl)amino]sulfonyl}acrylamide], the melting point lay in the range of 85 to 85.5 °C.

On to `CCCCCS(=O)(=O)NC(=O)/C=C/c1cc(OCCCC)nn1Cc1ccc(Cl)cc1Cl` [Example 98, (2E)-3-[3-butoxy-1-(2,4-dichlorobenzyl)-1H-pyrazol-5-yl]-N-(pentylsulfonyl)acrylamide], for which the melting point was in the range of 95 to 98 °C.

`CC(C)Oc1cc(CCC(=O)NS(=O)(=O)C2CCCCC2)n(Cc2ccc(Cl)cc2Cl)n1` [Example 90, N-(cyclohexylsulfonyl)-3-[1-(2,4-dichlorobenzyl)-3-isopropoxy-1H-pyrazol-5-yl]propanamide] showed a melting point of 137 to 138 °C.

`CCCCCS(=O)(=O)NC(=O)/C=C/c1ccc(OCCOC)cc1Oc1ncc(NC(=O)OC(C)(C)C)cc1C` [Example 192, tert-butyl [6-(5-(2-methoxyethoxy)-2-{(1E)-3-oxo-3-[(pentylsulfonyl)amino]prop-1-en-1-yl}phenoxy)-5-methylpyridin-3-yl]carbamate] registered a melting point of 149.5 to 150.2 °C.

`CCCCCS(=O)(=O)NC(=O)/C=C/c1ccc(OCCOC)cc1Oc1ncc(Br)cc1C` [Example 460, (2E)-3-[2-[(5-bromo-3-methylpyridin-2-yl)oxy]-4-(2-methoxyethoxy)phenyl]-N-(pentylsulfonyl)acrylamide] displayed a melting point of 159.8 to 160.2 °C.

As to `COCCCS(=O)(=O)NC(=O)CCc1cc(C(C)(C)C)nn1Cc1ccc(C(F)(F)F)cc1Cl` [Example 123, 3-{3-tert-butyl-1-[2-chloro-4-(trifluoromethyl)benzyl]-1H-pyrazol-5-yl}-N-[(3-methoxypropyl)sulfonyl]propanamide], the melting point lay in the range of 149 to 150 °C.

As to `C/C(=C\c1ccc(OC(C)C)cc1Oc1ncc(C(F)(F)F)cc1Cl)C(=O)NS(=O)(=O)NCC1CCCO1` (stereo not shown) [Example 231, (2E)-3-(2-{[3-chloro-5-(trifluoromethyl)pyridin-2-yl]oxy}-4-isopropoxyphenyl)-2-methyl-N-{[(tetrahydrofuran-2-ylmethyl)amino]sulfonyl}acrylamide], the melting point was in the range of 125.3 to 126.5 °C.

Take `COCCOc1ccc(CCCNS(=O)(=O)c2ccccc2)c(Oc2ncc(C(F)(F)F)cc2Cl)c1` [Example 16, N-{3-[2-{[3-chloro-5-(trifluoromethyl)pyridin-2-yl]oxy}-4-(2-methoxyethoxy)phenyl]propyl}benzenesulfonamide]: the melting point lay within 94 to 95 °C.

Compound `CCCCCS(=O)(=O)NC(=O)/C=C/c1cc(OC2CCOCC2)nn1Cc1ccc(C(F)(F)F)cc1Cl` [Example 154, (2E)-3-[1-[2-chloro-4-(trifluoromethyl)benzyl]-3-(tetrahydro-2H-pyran-4-yloxy)-1H-pyrazol-5-yl]-N-(pentylsulfonyl)acrylamide] displayed a melting point of 160.5 to 161 °C.

`CCCCCS(=O)(=O)NC(=O)/C=C/c1ccc(OCCO[Si](C(C)C)(C(C)C)C(C)C)cc1Oc1ncc(C(F)(F)F)cc1Cl`: the melting point is 106 to 108 °C.

Compound `CCCCCS(=O)(=O)NC/C=C/c1ccc(OCCOC)cc1Oc1ncc(C(F)(F)F)cc1Cl` [Example 27, N-{(2E)-3-[2-{[3-chloro-5-(trifluoromethyl)pyridin-2-yl]oxy}-4-(2-methoxyethoxy)phenyl]-2-propen-1-yl}pentane-1-sulfonamide] had a melting point of 106 to 106.5 °C.

Take `CCCCCS(=O)(=O)NC(=O)CCc1cc(OCCCC)nn1Cc1ccc(C(F)(F)F)cc1Cl` [Example 107, 3-{3-butoxy-1-[2-chloro-4-(trifluoromethyl)benzyl]-1H-pyrazol-5-yl}-N-(pentylsulfonyl)propanamide]: the melting point was in the range of 131 to 133 °C.

In the case of `CCOCCNS(=O)(=O)NC(=O)OCc1ccc(OCCOC)cc1Oc1ncc(C(F)(F)F)cc1Cl` [Example 76, 2-{[3-chloro-5-(trifluoromethyl)pyridin-2-yl]oxy}-4-(2-methoxyethoxy)benzyl {[(2-ethoxyethyl)amino]sulfonyl}carbamate], the melting point was 142.5 to 143 °C.

In turn, `COCCOc1ccc(/C=C/C(=O)NS(=O)(=O)c2cccnc2)c(Oc2ncc(C(F)(F)F)cc2Cl)c1` [Example 240, (2E)-3-[2-{[3-chloro-5-(trifluoromethyl)pyridin-2-yl]oxy}-4-(2-methoxyethoxy)phenyl]-N-(pyridin-3-ylsulfonyl)acrylamide] had a melting point of 165 to 167 °C.

For `COCCOc1ccc(CCC(=O)N(CCOC)S(N)(=O)=O)c(Oc2ncc(C(F)(F)F)cc2Cl)c1` [Example 213, N-(aminosulfonyl)-3-[2-{[3-chloro-5-(trifluoromethyl)pyridin-2-yl]oxy}-4-(2-methoxyethoxy)phenyl]-N-(2-methoxyethyl)propanamide], the melting point was 101 to 101.1 °C.

In turn, `COCCOc1ccc(/C=C/C(=O)NS(=O)(=O)c2ccccn2)c(Oc2ncc(C(F)(F)F)cc2Cl)c1` [Example 239, (2E)-3-[2-{[3-chloro-5-(trifluoromethyl)pyridin-2-yl]oxy}-4-(2-methoxyethoxy)phenyl]-N-(pyridin-2-ylsulfonyl)acrylamide] registered a melting point of 164 to 165 °C.

Compound `CCCCOc1cc(CCS(=O)(=O)NC(=O)OCCC)n(Cc2ccc(Cl)cc2Cl)n1` [Example 132, propyl ({2-[3-butoxy-1-(2,4-dichlorobenzyl)-1H-pyrazol-5-yl]ethyl}sulfonyl)c arbamate] displayed a melting point of 92 to 94 °C.

In turn, `COCCOc1ccc(CCCNS(C)(=O)=O)c(Oc2ncc(C(F)(F)F)cc2Cl)c1` [Example 15, N-{3-[2-{[3-chloro-5-(trifluoromethyl)pyridin-2-yl]oxy}-4-(2-methoxyethoxy)phenyl]propyl}methanesulfonamide] registered a melting point of 89 to 90 °C.

`COCCOc1ccc(/C=C/C(=O)NS(=O)(=O)c2ccc(Cl)cc2)c(Oc2ncc(C(F)(F)F)cc2Cl)c1` [Example 229, (2E)-N-[(4-chlorophenyl)sulfonyl]-3-[2-{[3-chloro-5-(trifluoromethyl)pyridin-2-yl]oxy}-4-(2-methoxyethoxy)phenyl]acrylamide] displayed a melting point of 182 to 182.5 °C.

`COCCOc1ccc(COC(=O)NS(=O)(=O)c2ccc(Cl)cc2)c(Oc2ncc(C(F)(F)F)cc2Cl)c1` [Example 65, 2-{[3-chloro-5-(trifluoromethyl)pyridin-2-yl]oxy}-4-(2-methoxyethoxy)benzyl [(4-chlorophenyl)sulfonyl]carbamate] came in with a melting point of 112 to 115 °C.
